The values that follow come from publication PMC3733398 (ACS medicinal chemistry letters, 2013).

The assay concerns sensitive, MDR and XDR clinical Mtb strains. It counts as cell-based, Mycobacterium tuberculosis. The following applies: panel of MDR and XDR drug resistant clinical Mtb strains.

As for `Cc1ccn2c(C(=O)NCc3ccc(Oc4ccc(F)cc4)cc3)c(C)nc2c1` [Compound 18], the “potency surpassing that of PA-824” value is approximately 10 fold.
